Experimental data as given in the Bradley open melting point set (2014).

**Q.** For `OCc1ccc(CO)cc1` [1,4-benzenedimethanol], which melting point is on record?
**A.** Its melting point is 119 °C.

**Q.** With `NC(=S)C1COc2ccccc2O1` (stereo not given) [1,4-benzodioxane-2-thiocarboxamide] as the molecule, how does the melting point read?
**A.** The melting point was 174 °C.

**Q.** For `Cc1ccc(S(=O)(=O)OC[C@@H]2OC(C)(C)O[C@H]2COS(=O)(=O)c2ccc(C)cc2)cc1` [1,4-di-o-tosyl-2,3-o-isopropylidene-l-threitol], which melting point is on record?
**A.** Its melting point is 90 °C.

**Q.** For `O=[N+]([O-])c1cc(Br)ccc1Br` [1,4-dibromo-2-nitrobenzene], which melting point is on record?
**A.** Its melting point is 84 °C.

**Q.** With `Brc1ccc(Br)cc1` [1,4-dibromobenzene] as the molecule, how does the melting point read?
**A.** Its melting point is 88 °C.

**Q.** With `BrCCCCBr` [1,4-dibromobutane] as the molecule, how does the melting point read?
**A.** The melting point was -20 °C.

**Q.** Which melting point does the source give for `Clc1ccc(Cl)c(I)c1` [1,4-dichloro-2-iodobenzene] here?
**A.** The melting point was 21 °C.

**Q.** With `Clc1ccc(Cl)cc1` [1,4-dichlorobenzene] as the molecule, how does the melting point read?
**A.** The melting point was 54 °C.

**Q.** For `CCc1ccc(CC)cc1` [1,4-diethylbenzene], which melting point is on record?
**A.** The melting point was -43 °C.

**Q.** With `Ic1ccc(I)cc1` [1,4-diiodobenzene] as the molecule, how does the melting point read?
**A.** The melting point was 131 °C.

**Q.** Which melting point does the source give for `ICCCCI` [1,4-diiodobutane] here?
**A.** Its melting point is 6 °C.

**Q.** With `Nc1ccc(N)cc1` [1,4-phenylenediamine] as the molecule, how does the melting point read?
**A.** Its melting point is 142 °C.

**Q.** For `OC1COC2C(O)COC12` (stereo not given) [1,4:3,6-dianhydrohexitol], which melting point is on record?
**A.** Its melting point is 61 °C.

**Q.** Which melting point does the source give for `Cc1cc(=O)n(-c2ccccc2)n1C` [1,5-Dimethyl-2-phenyl-1,2-dihydro-3H-pyrazol-3-one] here?
**A.** Its melting point is 110 °C.

**Q.** With `Nc1cccc2c(N)cccc12` [1,5-Naphthalenediamine] as the molecule, how does the melting point read?
**A.** The melting point was 158 °C.

**Q.** With `CC(C)CCCC(C)C1CCC2C3CCC45CCC(=O)C4C5(C)C3CCC12C` (stereo not given) [1,5-cyclocholestan-2-one] as the molecule, how does the melting point read?
**A.** Its melting point is 164 °C.

**Q.** For `C1=CCCC=CCC1` [1,5-cyclooctadiene], which melting point is on record?
**A.** Its melting point is -69 °C.

**Q.** For `C=CCCC=C` [1,5-hexadiene], which melting point is on record?
**A.** The melting point was -141 °C.

**Q.** Which melting point does the source give for `C1CCc2nnnn2CC1` [1,5-pentamethylene-1h-tetrazole] here?
**A.** The melting point was 60 °C.

**Q.** Which melting point does the source give for `NCCCCCCN` [1,6-diaminohexane] here?
**A.** The melting point was 41 °C.

**Q.** With `N#CCCCCCCC#N` [1,6-dicyanohexane] as the molecule, how does the melting point read?
**A.** Its melting point is -3 °C.

**Q.** For `COc1ccc2c(OC)cccc2c1` [1,6-dimethoxynaphthalene], which melting point is on record?
**A.** The melting point was 59 °C.

**Q.** With `O=[N+]([O-])c1ccc2c(c1)-c1cccc([N+](=O)[O-])c1C2` [1,6-dinitro-9H-fluorene] as the molecule, how does the melting point read?
**A.** The melting point was 286 °C.

**Q.** Which melting point does the source give for `OCCCCCCO` [1,6-hexanediol] here?
**A.** The melting point was 45 °C.

**Q.** With `O=C1c2c(O)ccc([N+](=O)[O-])c2C(=O)c2c([N+](=O)[O-])ccc(O)c21` [1,8-Dihydroxy-4,5-dinitro-9,10-anthraquinone] as the molecule, how does the melting point read?
**A.** The melting point was 225 °C.

**Q.** For `O=C1c2c(O)cccc2Cc2cccc(O)c21` [1,8-Dihydroxyanthracen-9(10H)-one], which melting point is on record?
**A.** The melting point was 181 °C.

**Q.** For `OCCCCCCCCCO` [1,9-nonanediol], which melting point is on record?
**A.** Its melting point is 47 °C.

**Q.** With `OCCCCCCCCCCCCO` [1,12-dodecanediol] as the molecule, how does the melting point read?
**A.** The melting point was 83 °C.

**Q.** For `O=C(O)CCCCCCCCCCCCCCCCCCC(=O)O` [1,18-octadecanedicarboxylic acid], which melting point is on record?
**A.** Its melting point is 127 °C.

**Q.** With `COc1ccc(C(=O)Cc2ccccc2)cc1OC` [1-(3,4-Dimethoxyphenyl)-2-phenylethanone] as the molecule, how does the melting point read?
**A.** Its melting point is 73 °C.

**Q.** Which melting point does the source give for `Nc1cccc(-n2ccccc2=O)c1` [1-(3-Aminophenyl)pyridin-2(1H)-one] here?
**A.** Its melting point is 183 °C.

**Q.** With `Fc1ccc(N2CCNCC2)cc1` [1-(4-fluorophenyl)piperazine] as the molecule, how does the melting point read?
**A.** The melting point was 32 °C.

**Q.** With `c1cc(N2CCNCC2)ccn1` [1-(4-pyridyl)piperazine] as the molecule, how does the melting point read?
**A.** The melting point was 139 °C.

**Q.** With `NCc1cccc2c(Br)cccc12` [1-(5-bromonaphthalen-1-yl)methanamine] as the molecule, how does the melting point read?
**A.** Its melting point is 139 °C.

**Q.** For `CS(=O)(=O)n1ccnc1` [1-(methylsulfonyl)imidazole], which melting point is on record?
**A.** The melting point was 89 °C.

**Q.** For `CCC(C(=O)NC(=O)NC(C)=O)c1ccccc1` (stereo not given) [1-Acetyl-3-(2-phenylbutyryl)urea], which melting point is on record?
**A.** Its melting point is 100 °C.

**Q.** With `CC(O)CN` (stereo not given) [1-Aminopropan-2-ol] as the molecule, how does the melting point read?
**A.** The melting point was -2 °C.

**Q.** With `O=[N+]([O-])c1cccc(Cl)c1` [1-Chloro-3-nitrobenzene] as the molecule, how does the melting point read?
**A.** The melting point was 45 °C.

**Q.** Which melting point does the source give for `Clc1cccc2ccccc12` [1-Chloronaphthalene] here?
**A.** Its melting point is -21.5 °C.

**Q.** Which melting point does the source give for `CCOCCOCCOCC` [1-Ethoxy-2-(2-ethoxyethoxy)ethane] here?
**A.** The melting point was -44 °C.

**Q.** Which melting point does the source give for `C=C(C)C(=O)OC(O)CC` (stereo not given) [1-Hydroxypropyl methacrylate] here?
**A.** The melting point was -58 °C.

**Q.** With `O=[N+]([O-])c1ccc(I)cc1` [1-Iodo-4-nitrobenzene] as the molecule, how does the melting point read?
**A.** The melting point was 176 °C.

**Q.** With `CCCCI` [1-Iodobutane] as the molecule, how does the melting point read?
**A.** The melting point was -103 °C.

**Q.** For `CCCCCCCCCCCCCCCCI` [1-Iodohexadecane], which melting point is on record?
**A.** The melting point was 22 °C.

**Q.** For `CCCI` [1-Iodopropane], which melting point is on record?
**A.** Its melting point is -101 °C.

**Q.** Which melting point does the source give for `Cc1ccc(C(C)C)cc1` [1-Isopropyl-4-methylbenzene] here?
**A.** Its melting point is -68 °C.

**Q.** Which melting point does the source give for `S=C=Nc1cccc2ccccc12` [1-Isothiocyanatonaphthalene] here?
**A.** Its melting point is 58 °C.

**Q.** Which melting point does the source give for `COCC(C)O` (stereo not given) [1-Methoxypropan-2-ol] here?
**A.** Its melting point is -97 °C.

**Q.** With `CC1(C(=O)O)CCCCC1` [1-Methylcyclohexanecarboxylic acid] as the molecule, how does the melting point read?
**A.** Its melting point is 38 °C.

**Q.** With `Cc1cccc2c1Cc1ccccc1-2` [1-Methylfluorene] as the molecule, how does the melting point read?
**A.** Its melting point is 85 °C.

**Q.** With `Cc1cccc2ccccc12` [1-Methylnaphthalene] as the molecule, how does the melting point read?
**A.** The melting point was -22 °C.

**Q.** Which melting point does the source give for `CNC(=O)Oc1cccc2ccccc12` [1-Naphthyl methylcarbamate] here?
**A.** Its melting point is 142 °C.

**Q.** For `C=Cc1cccc([N+](=O)[O-])c1` [1-Nitro-3-vinylbenzene], which melting point is on record?
**A.** The melting point was -5 °C.

**Q.** With `O=[N+]([O-])c1cccc2ccccc12` [1-Nitronaphthalene] as the molecule, how does the melting point read?
**A.** Its melting point is 62 °C.

**Q.** Which melting point does the source give for `O=[N+]([O-])c1ccc(/N=N/c2c(O)ccc3ccccc23)cc1` [1-[(E)-(4-Nitrophenyl)diazenyl]-2-naphthol] here?
**A.** Its melting point is 250 °C.

**Q.** Which melting point does the source give for `CC(=O)c1cccc2ccccc12` [1-acetylnaphthalene] here?
**A.** The melting point was 10 °C.

**Q.** For `Nc1ccc(O)c2c1C(=O)c1ccccc1C2=O` [1-amino-4-hydroxyanthraquinone], which melting point is on record?
**A.** The melting point was 208 °C.

**Q.** Which melting point does the source give for `CCCCCCCCCCN` [1-aminodecane] here?
**A.** Its melting point is 16 °C.

**Q.** Which melting point does the source give for `Nc1ccc2ccc3cccc4ccc1c2c34` [1-aminopyrene] here?
**A.** The melting point was 118 °C.

**Q.** For `O=C1CCN(C(=O)c2ccccc2)CC1` [1-benzoyl-4-piperidone], which melting point is on record?
**A.** Its melting point is 55 °C.

**Q.** For `N#CC1(O)CCN(Cc2ccccc2)CC1` [1-benzyl-4-cyano-4-hydroxypiperidine], which melting point is on record?
**A.** Its melting point is 97 °C.

**Q.** For `c1ccc(Cn2ccnc2)cc1` [1-benzylimidazole], which melting point is on record?
**A.** The melting point was 71 °C.

**Q.** With `CC(C)(C)OC(=O)N1CCCCC1=O` [1-boc-2-piperidone] as the molecule, how does the melting point read?
**A.** Its melting point is 36 °C.

**Q.** Which melting point does the source give for `CC(C)(C)OC(=O)N1CCc2ccccc21` [1-boc-indoline] here?
**A.** Its melting point is 47 °C.

**Q.** Which melting point does the source give for `CC(C)(C)OC(=O)N1CCNCC1` [1-boc-piperazine] here?
**A.** The melting point was 46 °C.

**Q.** Which melting point does the source give for `ClCCBr` [1-bromo-2-chloroethane] here?
**A.** The melting point was -17 °C.

**Q.** Which melting point does the source give for `CCc1ccccc1Br` [1-bromo-2-ethylbenzene] here?
**A.** Its melting point is -68 °C.

**Q.** For `Brc1ccccc1I` [1-bromo-2-iodobenzene], which melting point is on record?
**A.** The melting point was 10 °C.

**Q.** For `Oc1ccc2ccccc2c1Br` [1-bromo-2-naphthol], which melting point is on record?
**A.** The melting point was 75 °C.

**Q.** For `CC(C)CCBr` [1-bromo-3-methylbutane], which melting point is on record?
**A.** Its melting point is -112 °C.

**Q.** With `Brc1ccc(I)cc1` [1-bromo-4-iodobenzene] as the molecule, how does the melting point read?
**A.** The melting point was 91 °C.

**Q.** With `CCCCCBr` [1-bromopentane] [listing 1 of 2 here] as the molecule, how does the melting point read?
**A.** The melting point was -88 °C.

**Q.** Which melting point does the source give for `CCCCCBr` [1-bromopentane] [listing 2 of 2 here] here?
**A.** Its melting point is -95 °C.

**Q.** Which melting point does the source give for `FC(F)(F)C(F)(F)C(F)(F)C(F)(F)C(F)(F)C(F)(F)C(F)(F)C(F)(F)Br` [1-bromoperfluorooctane] here?
**A.** Its melting point is 6 °C.

**Q.** For `CCCBr` [1-bromopropane], which melting point is on record?
**A.** Its melting point is -110 °C.
